For 11 compounds, activity results are on record in patent publication US12053470B2, “Pharmaceutical combination comprising an ALK inhibitor and a SHP2 inhibitor” (Novartis AG, priority 2017, dated 2024).

The test system of this assay is Ceritinib resistant MGH049 cells. As to the kind of experiment: Cell colony formation assay with ceritinib resistant MGH049 cells.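 Further: tested compounds are SHP2 inhibitors given alone, colonies fixed and crystal violet stained, DMSO reference taken as the mean of six readings.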 The class given is cell-based, human. The note with it: Homo sapiens, 168 h; compound of Table 1 (3 μM) alone, 7 days; normalized to DMSO without compound = 100; read-out: Normalized Crystal Violet abs. (590 nm) DMSO.
For `C[C@@H]1OCC2(CCN(c3nc(N)c(Sc4cccc(Cl)c4Cl)c(=O)n3C)CC2)[C@@H]1N` [compound 27, 6-amino-2-((3S,4S)-4-amino-3-methyl-2-oxa-8-azaspiro[4.5]decan-8-yl)-5-((2,3-dichlorophenyl)thio)-3-methylpyrimidin-4(3H)-one], the activity at 3 µM stood at 37.8%.
Take `Nc1nc(N2CCC3(CC2)C[C@H](O)C[C@H]3N)cnc1Sc1ccnc(Cl)c1Cl` [compound 13, (2S,4R)-4-amino-8-(6-amino-5-((2,3-dichloropyridin-4-yl)thio)pyrazin-2-yl)-8-azaspiro[4.5]decan-2-ol]: the activity at 3 µM worked out at 42.8%.
The value for `C[C@H]1C[C@@H](N)C2(CCN(c3nc(N)c(-c4ccc(Cl)cc4)c(=O)n3C)CC2)C1` [compound 35, 6-amino-2-((1R,3R)-1-amino-3-methyl-8-azaspiro[4.5]decan-8-yl)-5-(4-chlorophenyl)-3-methylpyrimidin-4(3H)-one] was 32.2%; that for `CN1C(=O)C(C(=O)Nc2cccc(Sc3ncc(N4CCC(C)(N)CC4)nc3N)c2Cl)=C(O)C1Cc1ccccc1` (centres unmarked) [compound 54, N-(3-((3-amino-5-(4-amino-4-methylpiperidin-1-yl)pyrazin-2-yl)thio)-2-chlorophenyl)-5-benzyl-4-hydroxy-1-methyl-2-oxo-2,5-dihydro-1H-pyrrole-3-carboxamide] was 132%; that for `Nc1nc(N2CCC3(CC2)C[C@@H](O)C[C@H]3N)cnc1Sc1ccnc(Cl)c1Cl` [compound 14, (2R,4R)-4-amino-8-(6-amino-5-((2,3-dichloropyridin-4-yl)thio)pyrazin-2-yl)-8-azaspiro[4.5]decan-2-ol] was 51.2%.
In the case of `COc1cccc(Sc2c(N)nc(N3CCC4(CC3)CO[C@@H](C)[C@H]4N)n(C)c2=O)c1Cl` [compound 30, 6-amino-2-((3S,4S)-4-amino-3-methyl-2-oxa-8-azaspiro[4.5]decan-8-yl)-5-((2-chloro-3-methoxyphenyl)thio)-3-methylpyrimidin-4(3H)-one] it was 39.4%; in that of `C[C@@H]1OCC2(CCN(c3cnc(Sc4ccnc(N)c4Cl)c(N)n3)CC2)[C@@H]1N` [compound 16, (3S,4S)-8-(6-amino-5-((2-amino-3-chloropyridin-4-yl)thio)pyrazin-2-yl)-3-methyl-2-oxa-8-azaspiro[4.5]decan-4-amine], 34.4%.
For `C[C@@H]1OCC2(CCN(c3nc(N)c(Sc4cccc(N)c4C(F)(F)F)c(=O)n3C)CC2)[C@@H]1N` [compound 32, 6-amino-5-((3-amino-2-(trifluoromethyl)phenyl)thio)-2-((3S,4S)-4-amino-3-methyl-2-oxa-8-azaspiro[4.5]decan-8-yl)-3-methylpyrimidin-4(3H)-one], the activity at 3 µM was determined as 58.2%.
The value for `Cc1nc(N)ccc1-c1[nH]nc2nc(N3CCC4(CC3)CC(F)(F)C[C@H]4N)n(C)c(=O)c12` [compound 41, (R)-3-(6-amino-2-methylpyridin-3-yl)-6-(1-amino-3,3-difluoro-8-azaspiro[4.5]decan-8-yl)-5-methyl-2,5-dihydro-4H-pyrazolo[3,4-d]pyrimidin-4-one] was 25.3%.
The value for `Cc1nc(N)ccc1-c1[nH]nc2nc(N3CCC4(CC3)C[C@@H](C)C[C@H]4N)n(C)c(=O)c12` [compound 40, 3-(6-amino-2-methylpyridin-3-yl)-6-((1R,3R)-1-amino-3-methyl-8-azaspiro[4.5]decan-8-yl)-5-methyl-2,5-dihydro-4H-pyrazolo[3,4-d]pyrimidin-4-one] was 22.4%.
The value for `CC1(N)CCN(c2cnc(Sc3cccc(NC(=O)c4c(O)nc5ccccn5c4=O)c3Cl)c(N)n2)CC1` [Compound No. 44, N-(3-((3-amino-5-(4-amino-4-methylpiperidin-1-yl)pyrazin-2-yl)thio)-2-chlorophenyl)-2-hydroxy-4-oxo-4H-pyrido[1,2-a]pyrimidine-3-carboxamide] was 37%.
